Measured values as given in PubChem BioAssay (NCI).
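A five-concentration, 48-hour dose response in 96-well plates underlies each endpoint, interpolated linearly between surrounding concentrations. GI50: concentration for 50% inhibition of growth. TGI marks complete inhibition of growth.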

Tests used:
Experiment in all cases: DTP human tumour cell line panel, 48 h
786-0 renal = test system: 786-0 renal
A498 renal = test system: A498 renal
A549 NSCLC = test system: A549 NSCLC
ACHN renal = test system: ACHN renal
BT-549 breast = test system: BT-549 breast
CAKI-1 renal = test system: CAKI-1 renal
CCRF-CEM leukemia = test system: CCRF-CEM leukemia
COLO 205 colon = test system: COLO 205 colon
DU-145 prostate = test system: DU-145 prostate
HCC-2998 colon = test system: HCC-2998 colon
HCT-15 colon = test system: HCT-15 colon
HL-60(TB) leukemia = test system: HL-60(TB) leukemia
HOP-62 NSCLC = test system: HOP-62 NSCLC
HOP-92 NSCLC = test system: HOP-92 NSCLC
HS 578T breast = test system: HS 578T breast
HT29 colon = test system: HT29 colon
IGROV1 ovarian = test system: IGROV1 ovarian
K-562 leukemia = test system: K-562 leukemia
KM12 colon = test system: KM12 colon
LOX IMVI melanoma = test system: LOX IMVI melanoma
MALME-3M melanoma = test system: MALME-3M melanoma
MCF7 breast = test system: MCF7 breast
MDA-MB-435 = test system: MDA-MB-435
MDA-MB-468 breast = test system: MDA-MB-468 breast
MOLT-4 leukemia = test system: MOLT-4 leukemia
NCI-H226 lung = test system: NCI-H226 lung
NCI-H23 lung = test system: NCI-H23 lung
NCI-H460 lung = test system: NCI-H460 lung
NCI-H522 lung = test system: NCI-H522 lung
NCI/ADR-RES ovarian = test system: NCI/ADR-RES ovarian
OVCAR-3 ovarian = test system: OVCAR-3 ovarian
OVCAR-4 ovarian = test system: OVCAR-4 ovarian
OVCAR-5 ovarian = test system: OVCAR-5 ovarian
OVCAR-8 ovarian = test system: OVCAR-8 ovarian
PC-3 prostate = test system: PC-3 prostate
RPMI-8226 leukemia = test system: RPMI-8226 leukemia
RXF 393 renal = test system: RXF 393 renal
SF-268 CNS = test system: SF-268 CNS
SF-295 CNS = test system: SF-295 CNS
SF-539 CNS = test system: SF-539 CNS
SK-MEL-28 melanoma = test system: SK-MEL-28 melanoma
SK-MEL-5 melanoma = test system: SK-MEL-5 melanoma
SK-OV-3 ovarian = test system: SK-OV-3 ovarian
SN12C renal = test system: SN12C renal
SNB-19 CNS = test system: SNB-19 CNS
SR leukemia = test system: SR leukemia
SW-620 colon = test system: SW-620 colon
T-47D breast = test system: T-47D breast
TK-10 renal = test system: TK-10 renal
U251 CNS = test system: U251 CNS
UACC-257 melanoma = test system: UACC-257 melanoma
UACC-62 melanoma = test system: UACC-62 melanoma

Structure (SMILES): O=C(Nc1cc(Cl)cc(Cl)c1)Nc1cc(Cl)cc(Cl)c1
- GI50 (786-0 renal): 3 µM
- TGI (786-0 renal): > 100 µM
- GI50 (A498 renal): 2.24 µM
- TGI (A498 renal): 6.51 µM
- GI50 (A549 NSCLC): 2.02 µM
- TGI (A549 NSCLC): > 100 µM
- GI50 (ACHN renal): 2.75 µM
- TGI (ACHN renal): > 100 µM
- GI50 (BT-549 breast): 2.45 µM
- TGI (BT-549 breast): 7.85 µM
- GI50 (CAKI-1 renal): 2.79 µM
- TGI (CAKI-1 renal): > 100 µM
- GI50 (CCRF-CEM leukemia): 2.55 µM
- TGI (CCRF-CEM leukemia): 8.04 µM
- GI50 (COLO 205 colon): 1.99 µM
- TGI (COLO 205 colon): 3.5 µM
- GI50 (DU-145 prostate): 3.89 µM
- TGI (DU-145 prostate): > 100 µM
- GI50 (HCC-2998 colon): 3.13 µM
- TGI (HCC-2998 colon): > 100 µM
- GI50 (HCT-15 colon): 2.18 µM
- TGI (HCT-15 colon): > 100 µM
- GI50 (HL-60(TB) leukemia): 1.57 µM
- TGI (HL-60(TB) leukemia): 4.07 µM
- GI50 (HOP-62 NSCLC): 2.61 µM
- TGI (HOP-62 NSCLC): 8.74 µM
- GI50 (HOP-92 NSCLC): 1.99 µM
- TGI (HOP-92 NSCLC): 6.02 µM
- GI50 (HS 578T breast): 2.69 µM
- TGI (HS 578T breast): 8.47 µM
- GI50 (HT29 colon): 2.88 µM
- TGI (HT29 colon): 14.9 µM
- GI50 (IGROV1 ovarian): 3.52 µM
- TGI (IGROV1 ovarian): > 100 µM
- GI50 (K-562 leukemia): 2.5 µM
- TGI (K-562 leukemia): 12.8 µM
- GI50 (KM12 colon): 2.97 µM
- TGI (KM12 colon): 9.44 µM
- GI50 (LOX IMVI melanoma): 2.1 µM
- TGI (LOX IMVI melanoma): 4.54 µM
- GI50 (MALME-3M melanoma): 1.92 µM
- TGI (MALME-3M melanoma): 5.13 µM
- GI50 (MCF7 breast): 2.28 µM
- TGI (MCF7 breast): 7.37 µM
- GI50 (MDA-MB-435): 3.11 µM
- TGI (MDA-MB-435): > 100 µM
- GI50 (MDA-MB-468 breast): 2.27 µM
- TGI (MDA-MB-468 breast): 6.48 µM
- GI50 (MOLT-4 leukemia): 1.82 µM
- TGI (MOLT-4 leukemia): 4.42 µM
- GI50 (NCI-H226 lung): 2.95 µM
- TGI (NCI-H226 lung): > 100 µM
- GI50 (NCI-H23 lung): 1.86 µM
- TGI (NCI-H23 lung): 5.55 µM
- GI50 (NCI-H460 lung): 2.11 µM
- TGI (NCI-H460 lung): > 100 µM
- GI50 (NCI-H522 lung): 1.23 µM
- TGI (NCI-H522 lung): 5.22 µM
- GI50 (NCI/ADR-RES ovarian): 2.17 µM
- TGI (NCI/ADR-RES ovarian): 8.41 µM
- GI50 (OVCAR-3 ovarian): 2.92 µM
- TGI (OVCAR-3 ovarian): > 100 µM
- GI50 (OVCAR-4 ovarian): 3.54 µM
- TGI (OVCAR-4 ovarian): > 100 µM
- GI50 (OVCAR-5 ovarian): 2.91 µM
- TGI (OVCAR-5 ovarian): > 100 µM
- GI50 (OVCAR-8 ovarian): 2.9 µM
- TGI (OVCAR-8 ovarian): > 100 µM
- GI50 (PC-3 prostate): 2.42 µM
- TGI (PC-3 prostate): > 100 µM
- GI50 (RPMI-8226 leukemia): 0.861 µM
- TGI (RPMI-8226 leukemia): 3.97 µM
- GI50 (RXF 393 renal): 2.56 µM
- TGI (RXF 393 renal): 8.66 µM
- GI50 (SF-268 CNS): 3.31 µM
- TGI (SF-268 CNS): > 100 µM
- GI50 (SF-295 CNS): 1.74 µM
- TGI (SF-295 CNS): 4.4 µM
- GI50 (SF-539 CNS): 2.26 µM
- TGI (SF-539 CNS): 6.07 µM
- GI50 (SK-MEL-28 melanoma): 2.75 µM
- TGI (SK-MEL-28 melanoma): > 100 µM
- GI50 (SK-MEL-5 melanoma): 1.74 µM
- TGI (SK-MEL-5 melanoma): 3.28 µM
- GI50 (SK-OV-3 ovarian): 2.4 µM
- TGI (SK-OV-3 ovarian): 6.31 µM
- GI50 (SN12C renal): 2.66 µM
- TGI (SN12C renal): 9.92 µM
- GI50 (SNB-19 CNS): 3.05 µM
- TGI (SNB-19 CNS): > 100 µM
- GI50 (SR leukemia): 1.72 µM
- TGI (SR leukemia): 4.1 µM
- GI50 (SW-620 colon): 3.4 µM
- TGI (SW-620 colon): > 100 µM
- GI50 (T-47D breast): 3.04 µM
- TGI (T-47D breast): > 100 µM
- GI50 (TK-10 renal): 3.27 µM
- TGI (TK-10 renal): > 100 µM
- GI50 (U251 CNS): 2.75 µM
- TGI (U251 CNS): 11.5 µM
- GI50 (UACC-257 melanoma): 2.35 µM
- TGI (UACC-257 melanoma): 6.42 µM
- GI50 (UACC-62 melanoma): 2.48 µM
- TGI (UACC-62 melanoma): 14.3 µM
